Test results published in US9505749B2, “Quinazolinone compounds and derivatives thereof” (AMGEN INC., priority 2012, dated 2016).
Like-named read-outs stand apart in the source and are kept apart here.

What was measured:
[1] = tested on: total β-catenin in SW480 colorectal cells; experiment: Total β-catenin MSD 96-well plate assay for SW480 cells; conditions: Homo sapiens, SW480, read-out: SW480-Total beta-catenin (TBC) IC50 IP
PARP2 = PARP2 (Homo sapiens (Human), UniProt Q9UGN5); experiment: PARP2 biochemical assay (BPS kit)
Sequence of PARP2 (Q9UGN5 whole entry): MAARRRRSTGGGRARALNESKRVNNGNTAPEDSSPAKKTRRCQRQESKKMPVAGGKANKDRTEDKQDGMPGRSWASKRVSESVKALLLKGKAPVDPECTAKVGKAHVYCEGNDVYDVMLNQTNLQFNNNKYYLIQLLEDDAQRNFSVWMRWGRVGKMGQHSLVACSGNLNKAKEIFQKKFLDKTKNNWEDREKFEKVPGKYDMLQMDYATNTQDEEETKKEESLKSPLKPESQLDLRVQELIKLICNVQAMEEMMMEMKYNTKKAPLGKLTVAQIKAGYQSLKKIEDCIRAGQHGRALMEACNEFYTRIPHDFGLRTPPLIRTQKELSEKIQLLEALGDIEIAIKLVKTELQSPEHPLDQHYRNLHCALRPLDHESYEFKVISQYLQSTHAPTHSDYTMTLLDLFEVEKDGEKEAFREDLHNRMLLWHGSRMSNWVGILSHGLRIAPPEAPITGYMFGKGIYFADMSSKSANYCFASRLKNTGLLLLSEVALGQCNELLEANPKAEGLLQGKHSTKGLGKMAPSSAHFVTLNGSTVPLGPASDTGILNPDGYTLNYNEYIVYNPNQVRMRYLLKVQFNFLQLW

[2] = biological target: 6×HIS-tankyrase 2 (946-1162) (Homo sapiens (Human), UniProt Q9H2K2); experiment: Tankyrase 2 biochemical assay (AlphaLisa, PARsylation); conditions: 250 nM NAD; read-out: TNKS2 IC50
Sequence of 6×HIS-tankyrase 2 (946-1162) (Q9H2K2 946-1162): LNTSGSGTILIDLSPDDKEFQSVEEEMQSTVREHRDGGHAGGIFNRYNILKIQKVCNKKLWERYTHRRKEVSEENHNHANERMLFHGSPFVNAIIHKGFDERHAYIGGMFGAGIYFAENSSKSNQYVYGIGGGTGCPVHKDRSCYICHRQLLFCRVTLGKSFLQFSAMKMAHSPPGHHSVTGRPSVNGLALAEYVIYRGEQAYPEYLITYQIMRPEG

[3] = tested on: Axin2 accumulation in SW480 cells; experiment: Axin2 384 immunofluorescence assay; format: cell-based; conditions: Homo sapiens, read-out: Axin2 384 IF EC50
PARP1 = PARP1 (Homo sapiens (Human), UniProt P09874); experiment: PARP1 biochemical assay (Trevigen kit)
Sequence of PARP1 (P09874 whole entry): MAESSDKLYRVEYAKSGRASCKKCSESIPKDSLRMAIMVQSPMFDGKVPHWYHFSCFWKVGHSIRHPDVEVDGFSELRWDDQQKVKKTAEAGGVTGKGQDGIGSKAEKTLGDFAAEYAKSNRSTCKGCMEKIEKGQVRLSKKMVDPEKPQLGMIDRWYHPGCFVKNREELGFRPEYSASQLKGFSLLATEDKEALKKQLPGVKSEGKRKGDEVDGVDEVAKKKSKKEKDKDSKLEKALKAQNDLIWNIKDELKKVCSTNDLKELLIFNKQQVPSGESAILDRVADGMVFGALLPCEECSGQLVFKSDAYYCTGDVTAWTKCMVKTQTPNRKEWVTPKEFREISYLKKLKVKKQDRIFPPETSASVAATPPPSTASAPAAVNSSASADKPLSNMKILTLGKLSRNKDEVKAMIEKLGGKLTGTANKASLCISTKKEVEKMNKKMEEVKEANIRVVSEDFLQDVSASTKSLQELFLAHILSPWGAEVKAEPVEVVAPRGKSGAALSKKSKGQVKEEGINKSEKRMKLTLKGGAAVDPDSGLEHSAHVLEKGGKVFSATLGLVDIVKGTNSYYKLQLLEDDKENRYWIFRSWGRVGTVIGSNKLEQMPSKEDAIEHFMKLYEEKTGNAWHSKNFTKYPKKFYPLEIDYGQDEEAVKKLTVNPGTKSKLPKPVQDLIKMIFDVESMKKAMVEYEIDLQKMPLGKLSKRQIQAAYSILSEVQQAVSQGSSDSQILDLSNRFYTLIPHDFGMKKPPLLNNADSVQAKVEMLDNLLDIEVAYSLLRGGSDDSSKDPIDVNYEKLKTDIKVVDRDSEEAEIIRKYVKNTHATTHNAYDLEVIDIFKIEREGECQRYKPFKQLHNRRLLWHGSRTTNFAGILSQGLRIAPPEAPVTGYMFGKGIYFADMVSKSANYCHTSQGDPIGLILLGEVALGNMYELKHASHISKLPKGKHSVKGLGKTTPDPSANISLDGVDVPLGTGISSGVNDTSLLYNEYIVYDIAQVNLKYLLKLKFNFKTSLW
Source text: PARP1 biochemical assay was purchased as a kit from Trevigen (cat.#4676-096-K) and used per manufacturers recommendations.

[4] = biological target: 6×HIS-tankyrase1 (1091-1325) (Homo sapiens (Human), UniProt O95271); experiment: Tankyrase 1 biochemical assay (AlphaLisa, PARsylation); conditions: read-out: TNKS1 IC50
Sequence of 6×HIS-tankyrase1 (1091-1325) (O95271 1091-1325): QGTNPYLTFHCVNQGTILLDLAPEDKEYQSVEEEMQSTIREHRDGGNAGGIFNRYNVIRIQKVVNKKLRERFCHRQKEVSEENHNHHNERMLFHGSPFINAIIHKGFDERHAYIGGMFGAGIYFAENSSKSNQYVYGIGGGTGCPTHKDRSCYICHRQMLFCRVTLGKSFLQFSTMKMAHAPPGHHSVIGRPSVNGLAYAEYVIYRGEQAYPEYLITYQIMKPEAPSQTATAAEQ

Row | Structure (SMILES) | IC50 [1] [nM] | IC50 (PARP2) [nM] | IC50 [2] [nM] | EC50 ([3]; SW480 cells, 24 hours) [nM] | IC50 (PARP1) [nM] | IC50 ([4]; 400 nM NAD, 60 minutes at RT) [nM] | EC50 ([3]; SW480, 24 h) [nM] | IC50 [4] [nM]
1 | O=C(CCCc1nc2ccccc2c(=O)[nH]1)N1CCC(c2nnc(COc3ccc(Cl)cc3)o2)CC1 [Example 17, 2-(4-(4-(5-((4-chlorophenoxy)methyl)-1,3,4-oxadiazol-2-yl)-1-piperidinyl)-4-oxobutyl)-4(3H)-quinazolinone] | 2190 | 916 | 152 | 6390 | 3790 | 646 |  | 
2 | O=C(CCCc1nc2ccccc2c(=O)[nH]1)N1CCC(c2nnc(-c3ccccc3F)o2)CC1 [Example 18, 2-(4-(4-(5-(2-fluorophenyl)-1,3,4-oxadiazol-2-yl)-1-piperidinyl)-4-oxobutyl)-4(3H)-quinazolinone] | 760 | 1120 | 20.9 | 732 | 4470 | 54.4 |  | 
3 | O=C(CCCc1nc2ccccc2c(=O)[nH]1)N1CCC(c2nnc(-c3ccncc3)o2)CC1 [Example 19, 2-(4-oxo-4-(4-(5-(4-pyridinyl)-1,3,4-oxadiazol-2-yl)-1-piperidinyl)butyl)-4(3H)-quinazolinone] | 248 | 1120 | 4.86 | 291 | 4920 | 15 |  | 
4 | N#Cc1cccc(-c2nnc(C3CCN(C(=O)CCCc4nc5ccccc5c(=O)[nH]4)CC3)o2)c1 [Example 20, 3-(5-(1-(4-(4-oxo-3,4-dihydroquinazolin-2-yl)butanoyl)piperidin-4-yl)-1,3,4-oxadiazol-2-yl)benzonitrile] | 151 | 370 | 3.19 | 166 | 2850 | 11.3 |  | 
5 | N#Cc1ccc(-c2nnc(C3CCN(C(=O)CCCc4nc5ccccc5c(=O)[nH]4)CC3)o2)cc1 [Example 21, 4-(5-(1-(4-(4-oxo-3,4-dihydroquinazolin-2-yl)butanoyl)piperidin-4-yl)-1,3,4-oxadiazol-2-yl)benzonitrile] | 154 | 1450 | 4.89 | 242 | 2030 | 17.1 |  | 
6 | Cc1cccc(-c2nnc(C3CCN(C(=O)CCCc4nc5ccccc5c(=O)[nH]4)CC3)o2)c1 [Example 22, 2-(4-oxo-4-(4-(5-(m-tolyl)-1,3,4-oxadiazol-2-yl)piperidin-1-yl)butyl)quinazolin-4(3H)-one] | 217 | 1590 | 4.13 | 333 | 3130 | 19.4 |  | 
7 | Cc1ccc(-c2nnc(C3CCN(C(=O)CCCc4nc5ccccc5c(=O)[nH]4)CC3)o2)cc1 [Example 23, 2-(4-oxo-4-(4-(5-(p-tolyl)-1,3,4-oxadiazol-2-yl)piperidin-1-yl)butyl)quinazolin-4(3H)-one] | 152 | 455 | 6.31 | 601 | 3300 | 656 |  | 
8 | COc1cccc(-c2nnc(C3CCN(C(=O)CCCc4nc5ccccc5c(=O)[nH]4)CC3)o2)c1 [Example 24, 2-(4-(4-(5-(3-methoxyphenyl)-1,3,4-oxadiazol-2-yl)piperidin-1-yl)-4-oxobutyl)quinazolin-4(3H)-one] | 226 | 1110 | 4.95 | 257 | 1690 | 18.8 |  | 
9 | O=C(CCCc1nc2ccccc2c(=O)[nH]1)N1CCC(c2nnc(-c3ccc(F)c(Cl)c3)o2)CC1 [Example 25, 2-(4-(4-(5-(3-chloro-4-fluorophenyl)-1,3,4-oxadiazol-2-yl)piperidin-1-yl)-4-oxobutyl)quinazolin-4(3H)-one] | 224 | 1360 | 3.91 | 240 | 2300 | 9.61 |  | 
10 | O=C(CCCc1nc2ccccc2c(=O)[nH]1)N1CCC(n2c(=O)[nH]c3cccnc32)CC1 [Example 26, 2-(4-oxo-4-(4-(2-oxo-1,2-dihydro-3H-imidazo[4,5-b]pyridin-3-yl)-1-piperidinyl)butyl)-4(3H)-quinazolinone] | 361 | 397 | 1.51 | 1410 | 4930 | 5.07 |  | 
11 | O=C(CCCc1nc2ccccc2c(=O)[nH]1)N1CCC(n2c(=O)[nH]c3cc(Cl)ccc32)CC1 [Example 27, 2-(4-(4-(5-chloro-2-oxo-2,3-dihydro-1H-benzimidazol-1-yl)-1-piperidinyl)-4-oxobutyl)-4(3H)-quinazolinone] | 63.7 | 99.7 | 0.478 | 114 | 887 | 1.34 |  | 
12 | O=C(CCCc1nc2ccccc2c(=O)[nH]1)N[C@H]1CC[C@H](c2nnc(-c3ccc(Cl)cc3)o2)CC1 [Example 29, N-(trans-4-(5-(4-chlorophenyl)-1,3,4-oxadiazol-2-yl)cyclohexyl)-4-(4-oxo-3,4-dihydro-2-quinazolinyl)butanamide] | 14.9 | 889 | 0.43 | 30.2 | 1670 | 0.549 |  | 
13 | COc1ccc(-c2nnc([C@H]3CC[C@H](NC(=O)CCCc4nc5ccccc5c(=O)[nH]4)CC3)o2)cc1 [Example 30, N-(trans-4-(5-(4-methoxyphenyl)-1,3,4-oxadiazol-2-yl)cyclohexyl)-4-(4-oxo-3,4-dihydro-2-quinazolinyl)butanamide] | 10.6 | 1270 | 0.191 | 13.9 | 1060 | 0.567 |  | 
14 | O=C(CCCc1nc2ccccc2c(=O)[nH]1)N[C@H]1CC[C@H](c2nnc(-c3cccc(F)c3)o2)CC1 [Example 31, N-(trans-4-(5-(3-fluorophenyl)-1,3,4-oxadiazol-2-yl)cyclohexyl)-4-(4-oxo-3,4-dihydro-2-quinazolinyl)butanamide] | 24.8 | 1150 | 0.237 | 30.9 | 1050 | 0.469 |  | 
15 | COc1cccc(-c2nnc([C@H]3CC[C@H](NC(=O)CCCc4nc5ccccc5c(=O)[nH]4)CC3)o2)c1 [Example 32, N-(trans-4-(5-(3-methoxyphenyl)-1,3,4-oxadiazol-2-yl)cyclohexyl)-4-(4-oxo-3,4-dihydro-2-quinazolinyl)butanamide] | 15.7 | 828 | 0.301 | 32.5 | 801 | 0.495 |  | 
16 | O=C(CCCc1nc2ccccc2c(=O)[nH]1)N[C@H]1CC[C@H](c2nnc(-c3ccncc3)o2)CC1 [Example 33, 4-(4-oxo-3,4-dihydro-2-quinazolinyl)-N-(trans-4-(5-(4-pyridinyl)-1,3,4-oxadiazol-2-yl)cyclohexyl)butanamide] | 34.8 | 1140 | 0.341 | 25.7 | 2840 | 0.453 |  | 
17 | COc1ccc2[nH]c(=O)n(C3CCN(C(=O)CCCc4nc5ccccc5c(=O)[nH]4)CC3)c2c1 [Example 34, 2-(4-(4-(6-methoxy-2-oxo-2,3-dihydro-1H-benzimidazol-1-yl)-1-piperidinyl)-4-oxobutyl)-4(3H)-quinazolinone] | 101 | 431 | 0.981 | 96.9 | 629 | 1.97 |  | 
18 | O=C(CCCc1nc2ccccc2c(=O)[nH]1)N[C@H]1CC[C@H](c2nnc(-c3cccc(Cl)c3)o2)CC1 [Example 36, N-(trans-4-(5-(3-chlorophenyl)-1,3,4-oxadiazol-2-yl)cyclohexyl)-4-(4-oxo-3,4-dihydro-2-quinazolinyl)butanamide 2,2,2-trifluoroacetate] | 29.9 | 701 | 0.27 | 22 | 1140 | 0.367 |  | 
19 | O=C(CCCc1nc2ccccc2c(=O)[nH]1)N1CCC(n2c(=O)[nH]c3ccccc32)CC1 [Example 41, 2-(4-oxo-4-(4-(2-oxo-2,3-dihydro-1H-benzimidazol-1-yl)-1-piperidinyl)butyl)-4(3H)-quinazolinone trifluoroacetic acid] | 1710 | 500 | 4.91 | 3380 | 1490 | 8.05 |  | 
20 | O=C(CCCc1nc2ccccc2c(=O)[nH]1)N1CCC(c2nnc(-c3ccccc3)o2)CC1 [Example 42, 2-(4-oxo-4-(4-(5-phenyl-1,3,4-oxadiazol-2-yl)-1-piperidinyl)butyl)-4(3H)-quinazolinone] | 132 | 825 | 8.26 | 843 | 7470 | 28.2 |  | 
21 | O=C(CCCc1nc2ccccc2c(=O)[nH]1)N1CCC(N2C(=O)Cc3ccccc32)CC1 [Example 43, 2-(4-oxo-4-(4-(2-oxo-2,3-dihydro-1H-indol-1-yl)-1-piperidinyl)butyl)-4(3H)-quinazolinone] | 1910 | 1060 | 16.6 |  | 6420 |  | 3880 | 33.5
22 | O=C(CCCc1nc2ccccc2c(=O)[nH]1)N1CCC(n2c(=O)oc3ccccc32)CC1 [Example 44, 2-(4-oxo-4-(4-(2-oxo-1,3-benzoxazol-3(2H)-yl)-1-piperidinyl)butyl)-4(3H)-quinazolinone] | 681 | 363 | 3.53 | 2930 | 7610 | 8.97 |  | 
